Reference: US8192962B2, “Processes for detecting toxic substances” (Daikin Industries, Ltd., priority 2001, dated 2012)

Tested on: Energy system protein genes
Assay: DNA chip mRNA expression in yeast, energy system protein genes (Table 4)
Type: cell-based, Saccharomyces cerevisiae S288C
Outline: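 Value is the scanned fluorescence intensity ratio of exposed versus chemical-free cells. Log-phase S288C yeast in YPD at 25° C. received one toxic substance for two hours, dosed to slow growth without killing; Cy3/Cy5-labeled cDNA from oligo-dT-purified mRNA was hybridized to a whole-genome chip at 65° C.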

In the case of `CCCCCCCCCCCCOS(=O)(=O)[O-].[Na+]` [(18), sodium lauryl sulfate], the “The level of expressed mRNA in the presence of chemical substance/The level of expressed mRNA in the absence of chemical substance” value (yeast gene YAL060W) is reported as 1.8, the “The level of expressed mRNA in the presence of chemical substance/The level of expressed mRNA in the absence of chemical substance” value (yeast gene YBL058W, cells incubated two hours with the chemical substance) is reported as 1.4 and the “The level of expressed mRNA in the presence of chemical substance/The level of expressed mRNA in the absence of chemical substance” value (yeast gene YBL099W, cells incubated two hours with the chemical substance) is reported as 1.2. The “The level of expressed mRNA in the presence of chemical substance/The level of expressed mRNA in the absence of chemical substance” value (yeast gene YBR001C, cells incubated two hours with the chemical substance) was 1.6, the “The level of expressed mRNA in the presence of chemical substance/The level of expressed mRNA in the absence of chemical substance” value (yeast gene YBR185C, cells incubated two hours with the chemical substance) was 1.3 and the “The level of expressed mRNA in the presence of chemical substance/The level of expressed mRNA in the absence of chemical substance” value (yeast gene YBR221C, cells incubated two hours with the chemical substance) was 1.0. The “The level of expressed mRNA in the presence of chemical substance/The level of expressed mRNA in the absence of chemical substance” value (yeast gene YCL040W) was 1.7, the “The level of expressed mRNA in the presence of chemical substance/The level of expressed mRNA in the absence of chemical substance” value (yeast gene YCR012W) was 1.3 and the “The level of expressed mRNA in the presence of chemical substance/The level of expressed mRNA in the absence of chemical substance” value (yeast gene YCR046C, cells incubated two hours with the chemical substance) was 1.0. For the same compound, the “The level of expressed mRNA in the presence of chemical substance/The level of expressed mRNA in the absence of chemical substance” value (yeast gene YCR105W, cells incubated two hours with the chemical substance) was 1.1, the “The level of expressed mRNA in the presence of chemical substance/The level of expressed mRNA in the absence of chemical substance” value (yeast gene YDL021W) was 3.2 and the “The level of expressed mRNA in the presence of chemical substance/The level of expressed mRNA in the absence of chemical substance” value (yeast gene YDL067C, cells incubated two hours with the chemical substance) was 1.7. For the same compound, the “The level of expressed mRNA in the presence of chemical substance/The level of expressed mRNA in the absence of chemical substance” value (yeast gene YDL078C, cells incubated two hours with the chemical substance) was 2.0, the “The level of expressed mRNA in the presence of chemical substance/The level of expressed mRNA in the absence of chemical substance” value (yeast gene YDL107W, cells incubated two hours with the chemical substance) was 1.5 and the “The level of expressed mRNA in the presence of chemical substance/The level of expressed mRNA in the absence of chemical substance” value (yeast gene YDL174C) was 4.0. The “The level of expressed mRNA in the presence of chemical substance/The level of expressed mRNA in the absence of chemical substance” value (yeast gene YDL181W, cells incubated two hours with the chemical substance) was 1.4, the “The level of expressed mRNA in the presence of chemical substance/The level of expressed mRNA in the absence of chemical substance” value (yeast gene YDR001C) was 1.6 and the “The level of expressed mRNA in the presence of chemical substance/The level of expressed mRNA in the absence of chemical substance” value (yeast gene YDR050C, cells incubated two hours with the chemical substance) was 2.3. For the same compound, the “The level of expressed mRNA in the presence of chemical substance/The level of expressed mRNA in the absence of chemical substance” value (yeast gene YDR079W, cells incubated two hours with the chemical substance) was 1.3, the “The level of expressed mRNA in the presence of chemical substance/The level of expressed mRNA in the absence of chemical substance” value (yeast gene YDR178W, cells incubated two hours with the chemical substance) was 2.3 and the “The level of expressed mRNA in the presence of chemical substance/The level of expressed mRNA in the absence of chemical substance” value (yeast gene YDR231C) was 1.3. For the same compound, the “The level of expressed mRNA in the presence of chemical substance/The level of expressed mRNA in the absence of chemical substance” value (yeast gene YDR298C, cells incubated two hours with the chemical substance) was 1.6, the “The level of expressed mRNA in the presence of chemical substance/The level of expressed mRNA in the absence of chemical substance” value (yeast gene YDR377W, cells incubated two hours with the chemical substance) was 2.5 and the “The level of expressed mRNA in the presence of chemical substance/The level of expressed mRNA in the absence of chemical substance” value (yeast gene YDR529C, cells incubated two hours with the chemical substance) was 2.3. The “The level of expressed mRNA in the presence of chemical substance/The level of expressed mRNA in the absence of chemical substance” value (yeast gene YEL024W, cells incubated two hours with the chemical substance) was 1.5, the “The level of expressed mRNA in the presence of chemical substance/The level of expressed mRNA in the absence of chemical substance” value (yeast gene YEL039C, cells incubated two hours with the chemical substance) was 1.1 and the “The level of expressed mRNA in the presence of chemical substance/The level of expressed mRNA in the absence of chemical substance” value (yeast gene YER178W) was 0.9. For the same compound, the “The level of expressed mRNA in the presence of chemical substance/The level of expressed mRNA in the absence of chemical substance” value (yeast gene YFL057C) was 1.3, the “The level of expressed mRNA in the presence of chemical substance/The level of expressed mRNA in the absence of chemical substance” value (yeast gene YFR053C) was 2.2 and the “The level of expressed mRNA in the presence of chemical substance/The level of expressed mRNA in the absence of chemical substance” value (yeast gene YGL018C, cells incubated two hours with the chemical substance) was 1.0. For the same compound, the “The level of expressed mRNA in the presence of chemical substance/The level of expressed mRNA in the absence of chemical substance” value (yeast gene YGL062W) was 0.9, the “The level of expressed mRNA in the presence of chemical substance/The level of expressed mRNA in the absence of chemical substance” value (yeast gene YGL187C, cells incubated two hours with the chemical substance) was 2.4 and the “The level of expressed mRNA in the presence of chemical substance/The level of expressed mRNA in the absence of chemical substance” value (yeast gene YGL191W, cells incubated two hours with the chemical substance) was 1.7. For the same compound, the “The level of expressed mRNA in the presence of chemical substance/The level of expressed mRNA in the absence of chemical substance” value (yeast gene YGL205W, cells incubated two hours with the chemical substance) was 9.1, the “The level of expressed mRNA in the presence of chemical substance/The level of expressed mRNA in the absence of chemical substance” value (yeast gene YGL256W, cells incubated two hours with the chemical substance) was 0.8 and the “The level of expressed mRNA in the presence of chemical substance/The level of expressed mRNA in the absence of chemical substance” value (yeast gene YGR008C) was 4.2. For the same compound, the “The level of expressed mRNA in the presence of chemical substance/The level of expressed mRNA in the absence of chemical substance” value (yeast gene YGR043C) was 4.8, the “The level of expressed mRNA in the presence of chemical substance/The level of expressed mRNA in the absence of chemical substance” value (yeast gene YGR062C, cells incubated two hours with the chemical substance, 25° C., YPD medium) was 1.1 and the “The level of expressed mRNA in the presence of chemical substance/The level of expressed mRNA in the absence of chemical substance” value (yeast gene YGR087C, cells incubated two hours with the chemical substance) was 0.6. The “The level of expressed mRNA in the presence of chemical substance/The level of expressed mRNA in the absence of chemical substance” value (yeast gene YGR174C, cells incubated two hours with the chemical substance) was 2.3, the “The level of expressed mRNA in the presence of chemical substance/The level of expressed mRNA in the absence of chemical substance” value (yeast gene YGR192C) was 1.3 and the “The level of expressed mRNA in the presence of chemical substance/The level of expressed mRNA in the absence of chemical substance” value (yeast gene YGR244C) was 3.1. For the same compound, the “The level of expressed mRNA in the presence of chemical substance/The level of expressed mRNA in the absence of chemical substance” value (yeast gene YGR254W) was 1.2, the “The level of expressed mRNA in the presence of chemical substance/The level of expressed mRNA in the absence of chemical substance” value (yeast gene YHR179W) was 1.6 and the “The level of expressed mRNA in the presence of chemical substance/The level of expressed mRNA in the absence of chemical substance” value (yeast gene YIL160C) was 3.0. The “The level of expressed mRNA in the presence of chemical substance/The level of expressed mRNA in the absence of chemical substance” value (yeast gene YIR031C, cells incubated two hours with the chemical substance) was 0.8, the “The level of expressed mRNA in the presence of chemical substance/The level of expressed mRNA in the absence of chemical substance” value (yeast gene YJL052W) was 1.9 and the “The level of expressed mRNA in the presence of chemical substance/The level of expressed mRNA in the absence of chemical substance” value (yeast gene YJL121C, cells incubated two hours with the chemical substance) was 1.0. The “The level of expressed mRNA in the presence of chemical substance/The level of expressed mRNA in the absence of chemical substance” value (yeast gene YJL166W, cells incubated two hours with the chemical substance) was 4.0 and the “The level of expressed mRNA in the presence of chemical substance/The level of expressed mRNA in the absence of chemical substance” value (yeast gene YJL216C, cells incubated two hours with the chemical substance) was 2.0.
